Experiment [1] concerns JAK/STAT pathway (JAK1/JAK2-dependent nuclear translocation of STAT1-GFP). The experiment is described as follows: Inhibition of the JAK/STAT pathway: IFN-γ stimulated nuclear translocation of STAT1-GFP in HT1080 fibrosarcoma cells. The settings on record: Homo sapiens, HT-1080; HT1080 STAT1-GFP cells, 100 ng/ml IFN-γ 2 hours, compound added 30 min before; read-out: STAT1translo IC50. In kind it is cell-based. The essentials:
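Readout is the nuclear-minus-cytoplasmic GFP-STAT1 intensity, imaged at 10× using Hoechst-defined nuclear masks over at least 1000 cells/well. Stably transfected HT1080 fibrosarcoma cells were pretreated 30 min with compound (final 0.003–10 μM, 0.1% DMSO) before IFN-γ challenge.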

For another experiment, the target named is T1, GST-JAK3(811-1124) (Homo sapiens, UniProt P52333).
T1 construct: GST-JAK3(811-1124); made in house
T1 sequence (P52333 811-1124): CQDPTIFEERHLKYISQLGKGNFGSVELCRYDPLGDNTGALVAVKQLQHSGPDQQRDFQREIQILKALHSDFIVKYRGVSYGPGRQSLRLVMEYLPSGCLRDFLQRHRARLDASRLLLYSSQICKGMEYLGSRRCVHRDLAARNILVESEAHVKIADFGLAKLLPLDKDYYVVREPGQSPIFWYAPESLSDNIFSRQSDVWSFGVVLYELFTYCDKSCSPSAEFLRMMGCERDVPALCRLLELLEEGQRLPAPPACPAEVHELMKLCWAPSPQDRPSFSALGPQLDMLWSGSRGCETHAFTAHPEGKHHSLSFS
Briefly: EPK JAK-family kinases profiling assay (Caliper mobility shift), JAK3. It is filed as biochemical. The settings on record: ATP 80 μM, 6 nM kinase. The essentials: (§1)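 Turnover was read as substrate/product ratio after mobility-shift capillary-like separation of each reaction, run for 60 min at 30 °C with GST-tagged kinase domain, labelled peptide and ATP, and terminated with EDTA stop buffer.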

The target in another experiment is T2, GST-JAK2(808-1132) (Homo sapiens, UniProt O60674).
T2 construct: GST-JAK2(808-1132); purchased Invitrogen (Carlsbad, USA) #4288
T2 sequence (O60674 808-1132): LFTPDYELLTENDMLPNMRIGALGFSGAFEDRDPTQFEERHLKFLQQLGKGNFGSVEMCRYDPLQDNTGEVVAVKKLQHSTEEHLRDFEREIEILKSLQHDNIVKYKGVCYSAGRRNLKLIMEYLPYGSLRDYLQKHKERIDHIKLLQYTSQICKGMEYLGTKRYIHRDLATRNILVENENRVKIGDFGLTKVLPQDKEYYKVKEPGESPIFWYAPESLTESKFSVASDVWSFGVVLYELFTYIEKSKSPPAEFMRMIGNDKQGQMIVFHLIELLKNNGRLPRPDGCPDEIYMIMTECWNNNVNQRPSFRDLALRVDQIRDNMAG
Briefly: EPK JAK-family kinases profiling assay (Caliper mobility shift), JAK2. In kind it is biochemical. The following applies: ATP 20 μM, 1.8 nM kinase. The gist of the method:
as §1

Another experiment addresses T3, GST-JAK1(866-1154) (Homo sapiens, UniProt P23458).
T3 construct: GST-JAK1(866-1154); made in house
Briefly: EPK JAK-family kinases profiling assay (Caliper mobility shift), JAK1. It is filed as biochemical. The settings on record: ATP 40 μM, 50 nM kinase. The gist of the method: as §1

The next experiment addresses T4, GST-TYK2(888-1187) (Homo sapiens, UniProt P29597).
T4 construct: GST-TYK2(888-1187); made in house
T4 sequence (P29597 888-1187): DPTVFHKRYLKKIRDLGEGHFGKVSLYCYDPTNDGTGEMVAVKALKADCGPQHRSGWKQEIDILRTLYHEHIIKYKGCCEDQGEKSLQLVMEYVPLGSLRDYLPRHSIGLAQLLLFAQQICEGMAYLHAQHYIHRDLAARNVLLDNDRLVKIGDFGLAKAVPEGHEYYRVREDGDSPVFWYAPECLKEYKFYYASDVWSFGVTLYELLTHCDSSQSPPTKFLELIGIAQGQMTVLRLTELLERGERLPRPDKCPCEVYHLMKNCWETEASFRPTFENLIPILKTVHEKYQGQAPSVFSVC
Briefly: EPK JAK-family kinases profiling assay (Caliper mobility shift), TYK2. It is filed as biochemical. The following applies: ATP 30 μM, 40 nM kinase. The essentials:
as §1

Bounds are passed on as bounds.

A word on the IC50: it is the point on the concentration scale where inhibition reaches its midpoint.

T3 sequence (P23458 866-1154): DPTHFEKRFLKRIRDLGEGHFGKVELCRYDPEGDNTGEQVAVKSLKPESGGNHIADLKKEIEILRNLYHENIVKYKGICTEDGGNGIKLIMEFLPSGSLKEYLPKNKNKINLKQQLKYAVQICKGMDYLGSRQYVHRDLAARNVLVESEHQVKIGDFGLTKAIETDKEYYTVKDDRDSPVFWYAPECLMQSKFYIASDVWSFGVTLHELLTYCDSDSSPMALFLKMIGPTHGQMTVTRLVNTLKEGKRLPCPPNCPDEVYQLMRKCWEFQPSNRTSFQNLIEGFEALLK

For the compound `O=C(c1c(F)cc(-c2cccc3ncc(-c4cnn(C5CCNCC5)c4)nc23)cc1F)N1CCOCC1` [Example 97, {2,6-Difluoro-4-[3-(1-piperidin-4-yl-1H-pyrazol-4-yl)-quinoxalin-5-yl]-phenyl}-morpholin-4-yl-methanone], the 50% inhibitory concentration (IC50) in experiment [1] worked out at 495 nM; at GST-JAK3(811-1124), 9150 nM; at GST-JAK2(808-1132), 19.5 nM; on GST-JAK1(866-1154), 720 nM; on GST-TYK2(888-1187), 510 nM.
In the same order, the values of `COCCn1cc(-c2cnc3cccc(-c4cc(F)c(CN5CCOCC5)c(F)c4)c3n2)cn1` [Example 115, 8-(3,5-Difluoro-4-morpholin-4-ylmethyl-phenyl)-2-[1-(2-methoxy-ethyl)-1H-pyrazol-4-yl]-quinoxaline] are 1440 nM, 1600 nM, 9.3 nM, 72.5 nM and 480 nM.
In the same order, the values of `COCCOc1ccc(-c2cnc3cccc(-c4ccc(CN5CCOCC5)c(F)c4)c3n2)cc1OC` [Example 51, 8-(3-Fluoro-4-morpholin-4-ylmethyl-phenyl)-2-[3-methoxy-4-(2-methoxy-ethoxy)-phenyl]-quinoxaline] are 2040 nM, above 10000 nM, 31.5 nM, 120 nM and above 10000 nM.
As for `Cc1cc(-c2cnc3cccc(-c4cc(F)c(CN5CCOCC5)c(F)c4)c3n2)ccc1CN1CCOCC1` [Example 71, 8-(3,5-Difluoro-4-morpholin-4-ylmethyl-phenyl)-2-(3-methyl-4-morpholin-4-ylmethyl-phenyl)-quinoxaline], the IC50 in experiment [1] worked out at 2480 nM; at GST-JAK3(811-1124), 790 nM; at GST-JAK2(808-1132), 8.1 nM; at GST-JAK1(866-1154), 160 nM; on GST-TYK2(888-1187), 510 nM.
The corresponding values for `Cc1cc(-c2cnc3cccc(-c4cc(F)c(CN5CCS(=O)(=O)CC5)c(F)c4)c3n2)ccc1C(=O)N1CCN(C)CC1` [Example 44, (4-{8-[4-(1,1-Dioxido-thiomorpholin-4-ylmethyl)-3,5-difluoro-phenyl]-quinoxalin-2-yl}-2-methyl-phenyl)-(4-methyl-piperazin-1-yl)-methanone] are 49 nM, 405 nM, 6.55 nM, 150 nM and 240 nM.
On to `CN1CCN(c2ccc(-c3cnc4cccc(-c5ccc(CC(=O)N6CCOCC6)c(F)c5)c4n3)cc2)CC1` [Example 88, 2-(2-Fluoro-4-{3-[4-(4-methyl-piperazin-1-yl)-phenyl]-quinoxalin-5-yl}-phenyl)-1-morpholin-4-yl-ethanone], for which the 50% inhibitory concentration (IC50) in experiment [1] came out at 700 nM; on GST-JAK3(811-1124) it was 840 nM; at GST-JAK2(808-1132), 6.55 nM; at GST-JAK1(866-1154), 27 nM; on GST-TYK2(888-1187), 113 nM.
The corresponding values for `CN1CCN(c2ccc(-c3cnc4cccc(-c5cc(F)c(CN6CCOCC6)c(F)c5)c4n3)cn2)CC1` [Example 107, 8-(3,5-Difluoro-4-morpholin-4-ylmethyl-phenyl)-2-[6-(4-methyl-piperazin-1-yl)-pyridin-3-yl]-quinoxaline] are 2470 nM, 9800 nM, 95.5 nM, 1350 nM and 2950 nM.
In the same order, the values of `CN1CCN(c2ccc(-c3cnc4cccc(-c5cc(F)c(C(=O)N6CCOCC6)c(F)c5)c4n3)cc2)CC1` [Example 89, (2,6-Difluoro-4-{3-[4-(4-methyl-piperazin-1-yl)-phenyl]-quinoxalin-5-yl}-phenyl)-morpholin-4-yl-methanone] are 1340 nM, 3950 nM, 34 nM, 135 nM and 450 nM.
As for `Cc1cc(-c2cnc3cccc(-c4ccc(CN5CCS(=O)(=O)CC5)cc4)c3n2)ccc1C(=O)N1CCOCC1` [Example 63, (4-{8-[4-(1,1-Dioxido-thiomorpholin-4-ylmethyl)-phenyl]-quinoxalin-2-yl}-2-methyl-phenyl)-morpholin-4-yl-methanone], the half-maximal inhibitory concentration (IC50) came to 986 nM in experiment [1]; 4300 nM on GST-JAK3(811-1124); 77.5 nM on GST-JAK2(808-1132); 370 nM at GST-JAK1(866-1154); 1450 nM at GST-TYK2(888-1187).
The corresponding values for `COCCOc1ccc(-c2cnc3cccc(-c4cc(F)c(CN5CCS(=O)(=O)CC5)c(F)c4)c3n2)cc1OC` [Example 53, 8-[4-(1,1-Dioxido-thiomorpholin-4-ylmethyl)-3,5-difluoro-phenyl]-2-[3-methoxy-4-(2-methoxy-ethoxy)-phenyl]-quinoxaline] are 150 nM, 215 nM, below 3 nM, 12 nM and 93.5 nM.
In the same order, the values of `Cc1cc(-c2cnc3cccc(-c4cc(F)c(CN5CCOCC5)c(F)c4)c3n2)ccc1C(=O)N(C)CCN(C)C` [Example 94, 4-[8-(3,5-Difluoro-4-morpholin-4-ylmethyl-phenyl)-quinoxalin-2-yl]-N-(2-dimethylamino-ethyl)-2,N-dimethyl-benzamide] are 1530 nM, 2150 nM, 27 nM, 455 nM and 985 nM.

Source of the values: US8193189B2, “Quinoxaline derivatives as tyrosine kinase activity inhibitors” (Novartis AG, priority 2007, dated 2012).
